Data published in PubChem BioAssay AID328 (DTP/NCI, 2004).
Several values for one entry are separate records, joined by “and”; a condition that tells them apart may be missing. Equal values may be shown once. Inconclusive results and toxic doses are left out.

Test system: BDF1 mice, P388 leukemia ip, median survival T/C
Assay: NCI In Vivo Anticancer Drug Screen. Data for tumor model P388 Leukemia (intraperitoneal) in B6D2F1 (BDF1) mice
Conditions: endpoint: median survival time, higher = longer survival
How it was run: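 Mice carrying the transplantable tumour receive compound or vehicle. Survival is followed in each arm, and the treated measure is divided by the vehicle measure.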

[1] = dose: 100.0 mg/kg/injection, schedule: Q04DX003 (ip), vehicle: saline

**Q.** Which T/C (dose: 0.7 mg/kg/injection, schedule: Q01DX009 (ip), vehicle: saline with Tween-80) does the source give for `O=NN(CCCl)C(=O)NC1CSCSC1` here?
**A.** 92 % of control

**Q.** What about the T/C (dose: 1.7 mg/kg/injection, schedule: Q01DX009 (ip), vehicle: saline with Tween-80) of the same compound?
**A.** 151 % of control

**Q.** What about the T/C (dose: 2.6 mg/kg/injection, schedule: Q01DX009 (ip), vehicle: saline with Tween-80) of the same compound?
**A.** 159 % of control

**Q.** What about the T/C (dose: 3.0 mg/kg/injection, schedule: Q04DX003 (ip), vehicle: saline with Tween-80) of the same compound?
**A.** 119 % of control

**Q.** What about the T/C (dose: 4.0 mg/kg/injection, schedule: Q01DX009 (ip), vehicle: saline with Tween-80) of the same compound?
**A.** 250 % of control and 192 % of control

**Q.** And the T/C (dose: 5.0 mg/kg/injection, schedule: Q04DX003 (ip), vehicle: saline with Tween-80)?
**A.** 152 % of control

**Q.** What about the T/C (dose: 6.0 mg/kg/injection, schedule: Q01DX009 (ip), vehicle: saline with Tween-80) of the same compound?
**A.** 230 % of control and 250 % of control

**Q.** And the T/C (dose: 8.0 mg/kg/injection, schedule: Q04DX003 (ip), vehicle: saline with Tween-80)?
**A.** 185 % of control

**Q.** And the T/C (dose: 9.0 mg/kg/injection, schedule: Q01DX009 (ip), vehicle: saline with Tween-80)?
**A.** 187 % of control

**Q.** And the T/C (dose: 12.0 mg/kg/injection, schedule: Q01DX009 (ip), vehicle: saline with Tween-80)?
**A.** 184 % of control

**Q.** What about the T/C (dose: 12.0 mg/kg/injection, schedule: Q04DX003 (ip), vehicle: saline with Tween-80) of the same compound?
**A.** 272 % of control and 285 % of control

**Q.** What about the T/C (dose: 18.0 mg/kg/injection, schedule: Q04DX003 (ip), vehicle: saline with Tween-80) of the same compound?
**A.** 204 % of control

**Q.** What about the T/C (dose: 25.0 mg/kg/injection, schedule: Q01DX009 (ip), vehicle: saline with Tween-80) of the same compound?
**A.** 90 % of control

**Q.** What about the T/C (dose: 25.0 mg/kg/injection, schedule: Q04DX003 (ip), vehicle: saline with Tween-80) of the same compound?
**A.** 240 % of control and 172 % of control

**Q.** What about the T/C (dose: 37.0 mg/kg/injection, schedule: Q04DX003 (ip), vehicle: saline with Tween-80) of the same compound?
**A.** 272 % of control and 95 % of control

**Q.** `O=C1c2ccccc2C(=O)N1CNc1ncccn1` was tested. Which T/C (dose: 6.25 mg/kg/injection, schedule: Q01DX005 (ip), vehicle: saline with Tween-80) did it give?
**A.** 95 % of control

**Q.** What about the T/C (dose: 12.5 mg/kg/injection, schedule: Q01DX005 (ip), vehicle: saline with Tween-80) of the same compound?
**A.** 98 % of control

**Q.** What about the T/C (dose: 25.0 mg/kg/injection, schedule: Q01DX005 (ip), vehicle: saline with Tween-80) of the same compound?
**A.** 90 % of control

**Q.** And the T/C (dose: 100.0 mg/kg/injection, schedule: Q01DX005 (ip), vehicle: saline with Tween-80)?
**A.** 108 % of control

**Q.** What about the T/C (dose: 200.0 mg/kg/injection, schedule: Q01DX005 (ip), vehicle: saline with Tween-80) of the same compound?
**A.** 105 % of control

**Q.** `COC(=O)C1C(O)C(C)C(OC(C)=O)C(C)/C=C\C=C(C)C(=O)Nc2c(C)c(OC(C)=O)c3c(c2O)C(=O)C(C)=C2OCOC(=C23)C(C)=CC(C)(O)C(O)C(C)C1O` (stereo unspecified) was tested. Which T/C (dose: 100.0 mg/kg/injection, schedule: Q01DX009 (ip), vehicle: Klucel (hydroxypropylcellulose) (HPC)) did it give?
**A.** 101 % of control

**Q.** What about the T/C (dose: 200.0 mg/kg/injection, schedule: Q01DX009 (ip), vehicle: Klucel (hydroxypropylcellulose) (HPC)) of the same compound?
**A.** 106 % of control

**Q.** And the T/C (dose: 400.0 mg/kg/injection, schedule: Q01DX009 (ip), vehicle: Klucel (hydroxypropylcellulose) (HPC))?
**A.** 110 % of control

**Q.** How did the T/C (dose: 100.0 mg/kg/injection, schedule: Q04DX002 (ip), vehicle: saline with Tween-80) turn out when `CC(C)N(c1c2c(oc(=O)c1Cl)CCSC2)C(C)C` was run?
**A.** 99 % of control

**Q.** And the T/C (dose: 200.0 mg/kg/injection, schedule: Q04DX002 (ip), vehicle: saline with Tween-80)?
**A.** 101 % of control

**Q.** What about the T/C (dose: 400.0 mg/kg/injection, schedule: Q04DX002 (ip), vehicle: saline with Tween-80) of the same compound?
**A.** 96 % of control

**Q.** Which T/C [1] does the source give for `CC(O)COCc1ccccc1` (stereo unspecified) here?
**A.** 100 % of control

**Q.** And the T/C (dose: 200.0 mg/kg/injection, schedule: Q04DX003 (ip), vehicle: saline)?
**A.** 87 % of control

**Q.** What about the T/C (dose: 400.0 mg/kg/injection, schedule: Q04DX003 (ip), vehicle: saline) of the same compound?
**A.** 108 % of control

**Q.** With `S=C1NCCS1` as the compound, how does the T/C (dose: 22.5 mg/kg/injection, schedule: Q01DX009 (ip), vehicle: saline with Tween-80) read?
**A.** 97 % of control

**Q.** What about the T/C (dose: 45.0 mg/kg/injection, schedule: Q01DX009 (ip), vehicle: saline with Tween-80) of the same compound?
**A.** 97 % of control

**Q.** And the T/C (dose: 90.0 mg/kg/injection, schedule: Q01DX009 (ip), vehicle: saline with Tween-80)?
**A.** 92 % of control

**Q.** With `CCCCNP(=O)(N1CC1C)N1CC1C` (stereo unspecified) as the compound, how does the T/C (dose: 33.0 mg/kg/injection, schedule: Q04DX003 (ip), vehicle: saline) read?
**A.** 122 % of control

**Q.** What about the T/C (dose: 50.0 mg/kg/injection, schedule: Q04DX003 (ip), vehicle: saline) of the same compound?
**A.** 175 % of control and 181 % of control

**Q.** And the T/C [1]?
**A.** 90 % of control

**Q.** `N=C(N)c1cn(C2OC(CO)C(O)C2O)c2ncnc(N)c12` (stereo unspecified) was tested. Which T/C (dose: 0.44 mg/kg/injection, schedule: Q01DX009 (ip), vehicle: saline) did it give?
**A.** 156 % of control

**Q.** And the T/C (dose: 0.44 mg/kg/injection, schedule: Q04DX003 (ip), vehicle: saline)?
**A.** 102 % of control

**Q.** What about the T/C (dose: 0.66 mg/kg/injection, schedule: Q01DX009 (ip), vehicle: saline) of the same compound?
**A.** 164 % of control

**Q.** And the T/C (dose: 0.66 mg/kg/injection, schedule: Q04DX003 (ip), vehicle: saline)?
**A.** 109 % of control

**Q.** What about the T/C (dose: 1.0 mg/kg/injection, schedule: Q01DX009 (ip), vehicle: Klucel (hydroxypropylcellulose) (HPC)) of the same compound?
**A.** 160 % of control

**Q.** What about the T/C (dose: 1.0 mg/kg/injection, schedule: Q01DX009 (ip), vehicle: saline) of the same compound?
**A.** 162 % of control

**Q.** And the T/C (dose: 1.0 mg/kg/injection, schedule: Q04DX003 (ip), vehicle: saline)?
**A.** 100 % of control

**Q.** And the T/C (dose: 1.5 mg/kg/injection, schedule: Q01DX009 (ip), vehicle: saline)?
**A.** 173 % of control

**Q.** What about the T/C (dose: 3.13 mg/kg/injection, schedule: Q01DX009 (ip), vehicle: saline) of the same compound?
**A.** 202 % of control

**Q.** And the T/C (dose: 6.25 mg/kg/injection, schedule: Q04DX003 (ip), vehicle: saline)?
**A.** 154 % of control

**Q.** What about the T/C (dose: 8.0 mg/kg/injection, schedule: Q01DX009 (ip), vehicle: Klucel (hydroxypropylcellulose) (HPC)) of the same compound?
**A.** 90 % of control and 105 % of control

**Q.** And the T/C (dose: 12.5 mg/kg/injection, schedule: Q01DX009 (ip), vehicle: saline)?
**A.** 86 % of control

**Q.** What about the T/C (dose: 12.5 mg/kg/injection, schedule: Q04DX003 (ip), vehicle: saline) of the same compound?
**A.** 177 % of control

**Q.** What about the T/C (dose: 16.5 mg/kg/injection, schedule: Q04DX003 (ip), vehicle: saline) of the same compound?
**A.** 159 % of control and 181 % of control

**Q.** What about the T/C (dose: 25.0 mg/kg/injection, schedule: Q04DX003 (ip), vehicle: saline) of the same compound?
**A.** 181 % of control and 190 % of control

**Q.** And the T/C (dose: 37.5 mg/kg/injection, schedule: Q04DX003 (ip), vehicle: saline)?
**A.** 181 % of control
